Results on one compound are retold here after PMC10089784, “Inhibition of Gluconeogenesis by Boldine in the Perfused Liver: Therapeutical Implication for Glycemic Control” (International Journal of Hepatology, 2023).

A word on the inhibition: it is the share of the control response that was lost under treatment. High values mean strong suppression, low ones little suppression.

Format in all cases: cell-based
Experiment [1] concerns the target T1, fructose 1,6-bisphosphatase (FBPase-1) (Rattus norvegicus, UniProt P19112).
T1 construct: gene Fbp1; rat liver cytosolic fraction
T1 sequence (P19112 2-363): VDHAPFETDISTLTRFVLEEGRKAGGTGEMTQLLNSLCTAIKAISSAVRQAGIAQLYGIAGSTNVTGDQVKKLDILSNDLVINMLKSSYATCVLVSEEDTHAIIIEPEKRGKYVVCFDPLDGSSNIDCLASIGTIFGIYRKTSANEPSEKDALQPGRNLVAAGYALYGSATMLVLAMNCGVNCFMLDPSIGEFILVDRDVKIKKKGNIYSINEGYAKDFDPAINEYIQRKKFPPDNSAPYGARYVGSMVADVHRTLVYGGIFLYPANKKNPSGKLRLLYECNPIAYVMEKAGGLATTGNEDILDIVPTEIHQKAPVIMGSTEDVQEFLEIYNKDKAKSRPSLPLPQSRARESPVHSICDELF
Put plainly: phosphate release from fructose […],6-bisphosphate in rat liver cytosolic fraction; […] (incomplete) inhibition at […].

Experiment [2] deals with T2, phosphoenolpyruvate carboxykinase (PEPCK) (Rattus norvegicus, UniProt P07379).
T2 construct: gene Pck1; rat liver cytosolic fraction
Put plainly: enzyme activity in rat liver cytosolic fraction, coupled to malate dehydrogenase (NADH oxidation, […] nm); […] inhibition at […].

The target of experiment [3] is T3, glucose 6-phosphatase (G6Pase) (Rattus norvegicus, UniProt P43428).
T3 construct: gene G6pc1; isolated rat liver microsomes
T3 sequence (P43428 1-357): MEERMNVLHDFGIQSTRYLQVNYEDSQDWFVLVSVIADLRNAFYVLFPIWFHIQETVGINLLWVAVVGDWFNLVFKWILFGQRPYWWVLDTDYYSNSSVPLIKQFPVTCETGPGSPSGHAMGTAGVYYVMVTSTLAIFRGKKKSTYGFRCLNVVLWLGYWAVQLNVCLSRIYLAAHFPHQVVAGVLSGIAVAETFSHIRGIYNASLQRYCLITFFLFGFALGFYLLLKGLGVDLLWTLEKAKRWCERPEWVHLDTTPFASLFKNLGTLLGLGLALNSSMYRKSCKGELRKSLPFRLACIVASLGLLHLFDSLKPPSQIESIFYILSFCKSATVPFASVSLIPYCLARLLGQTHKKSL
The experiment is described as follows: phosphate release from glucose 6-phosphate in isolated rat liver microsomes; […] inhibition at […]. On the technique in general: Liver microsomes are vesicles of endoplasmic reticulum, rich in cytochrome P450 enzymes.

T2 sequence (P07379 whole entry): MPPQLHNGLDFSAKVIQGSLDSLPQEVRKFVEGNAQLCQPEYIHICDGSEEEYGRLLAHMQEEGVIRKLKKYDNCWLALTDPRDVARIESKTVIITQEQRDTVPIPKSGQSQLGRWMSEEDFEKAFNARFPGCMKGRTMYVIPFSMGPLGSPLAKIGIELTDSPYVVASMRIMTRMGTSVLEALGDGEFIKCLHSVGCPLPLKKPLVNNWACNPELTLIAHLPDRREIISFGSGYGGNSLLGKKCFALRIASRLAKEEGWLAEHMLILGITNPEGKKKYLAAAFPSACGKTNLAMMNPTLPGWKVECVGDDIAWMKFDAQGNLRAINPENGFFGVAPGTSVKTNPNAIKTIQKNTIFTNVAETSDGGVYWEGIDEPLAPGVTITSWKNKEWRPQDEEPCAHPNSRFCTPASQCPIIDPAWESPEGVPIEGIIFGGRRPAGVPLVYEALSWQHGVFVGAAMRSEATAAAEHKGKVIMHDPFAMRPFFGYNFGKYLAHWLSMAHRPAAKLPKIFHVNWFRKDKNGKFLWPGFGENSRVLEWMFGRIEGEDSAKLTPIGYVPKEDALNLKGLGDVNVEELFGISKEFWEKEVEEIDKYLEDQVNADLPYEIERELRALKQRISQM

On to `COc1cc2c(cc1O)C[C@H]1c3c(cc(O)c(OC)c3-2)CCN1C` [boldine, 1,10-dimethoxy-2,9-dihydroxy aporphine], for which the inhibition at 200 µM in experiment [1] turned out to be 42%; in experiment [2] it was 49%; in experiment [3] it was 35%.
